These results are taken from ChEMBL document CHEMBL4371089, “Novel, potent, selective, and brain penetrant phosphodiesterase 10A inhibitors” (Bioorg Med Chem Lett, 2019).

The conditions of data set [1]: rat, in vivo, ip, 2 mg/kg, 1 h.
For data set [2] the following is noted: rat, in vivo, ip, 2 mg/kg, 1 h. This is another data set of the same source.
Data set [3] can be described thus: in vivo. Particulars: rat, iv, 2 mg/kg.
Data set [4] is described as follows: in vivo. Particulars: rat, po, 2 mg/kg.
Data set [5] can be described thus: in vivo. Particulars: rat, plasma, ip, 2 mg/kg.
The nature of data set [6]: in vivo. Particulars: rat, brain, ip, 2 mg/kg.
A short description of data set [7]: in vivo. Particulars: rat, brain/plasma, ip, 2 mg/kg.
Data set [8] in a line: in vivo. Particulars: rat, brain/plasma, ip, 2 mg/kg. This is another data set of the same source.
Another data set concerns P-gp. As to the kind of experiment: in vitro. Particulars: dog, MDCK-MDR1.

As to `CCCc1nc(C)c2c(C)nc3ccc(OC)nc3n12`, the “Cp(f)/dose” value in data set [1] is 0.1 ng/mL. Besides, the “Druguptake(free)/dose” value in [2] stood at 0.4 ng/mL. The same compound displayed a Vd in the data set “in vivo [3]” of 2.4 L/kg. The bioavailability in “in vivo [4]” came out at 19%. The results for the concentration at 1 h in the data set “in vivo [5]” and in “in vivo [6]” were 72 ng/mL and 118 ng/mL, respectively. For the same compound, in the data set “in vivo [7]”, the partition ratio (Kp) at 1 h was determined as 1.67. Also, in the data set “in vivo [8]”, the Kp uu at 1 h came to 3.81. The Papp with P-gp stood at 33 ×10⁻⁶ cm/s.
In the data set on P-gp, `Cn1nc(-c2ccccc2Cl)c2c3cc(F)cc(F)c3nnc21` yielded a Papp of 36 ×10⁻⁶ cm/s.
The same measure, in the same setting: in the case of `CCCc1nc(C)c2c(C)nc3scnc3n12` it was 68 ×10⁻⁶ cm/s; in that of `COc1cc(OC)c2nnc3c(c(C4CC4)nn3C)c2c1`, 62 ×10⁻⁶ cm/s.

By Vd is commonly meant the apparent volume that relates the amount in the body to the concentration in plasma or blood. The low end stands for little distribution into tissue, the high end for wide distribution into tissue. Broadly, the bioavailability is dose-corrected exposure relative to a reference, in per cent. Low values mean poor availability, high ones good availability. A word on the Kp: it is tissue or fluid exposure divided by exposure in the circulation. As a reminder, the Papp is a coefficient for how fast a substance crosses the barrier. Read a high Papp as ready permeation.
